Test systems include MCF7; IGROV-1; CCRF-CEM; T47D; A549; SF-539; OVCAR-5; RXF 393; KM12; SF-295; MDA-MB-435; HOP-92; HCT-15; HL-60; K562; NCI-H23; UACC-62; 786-0; SNB-75; SR.
Holding throughout (test): growth of human tumour cells (NCI), 48 h

Here are results for twelve molecules from ChEMBL document CHEMBL1201862, “PubChem BioAssay data set” (2004).

Structures are written as SMILES.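 Each compound was tested at five concentrations against cells in 96-well plates for 48 hours. GI50 is the concentration that inhibits growth by half.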 The source made the active and inactive calls. Rule as the data show it: active = GI50 up to about 1.1 µM and inactive = higher. A value given as a limit tells only on which side of the number the result lay.

In the case of `S=c1[nH]nc(COc2ccc3c(c2)CCCC3)n1/N=C/c1ccc(Cl)cc1`, the GI50 in the experiment on MCF7 was 11.8 µM (inactive); in the experiment on IGROV-1, 16.4 µM (inactive); with CCRF-CEM, 32.1 µM (inactive); in the experiment on T47D it was 12.1 µM (inactive); with A549 it was 18.7 µM (inactive); with SF-539, 17.6 µM (inactive). Besides, the GI50 in the experiment with OVCAR-5 was 17.9 µM (inactive); with RXF 393, 14.4 µM (inactive); in the experiment on KM12, 16.3 µM (inactive); in the experiment on SF-295, 17.8 µM (inactive); in the experiment on MDA-MB-435, 19.3 µM (inactive); with HOP-92 it was 14.7 µM (inactive). For the same molecule, the GI50 with HCT-15 was 20.4 µM; in the experiment with HL-60, 18.2 µM (inactive); in the experiment with K562 it was 17.3 µM (inactive); with NCI-H23, 19.5 µM (inactive); in the experiment with UACC-62 it was 19.1 µM (inactive).
With `CN(C)Cc1cc(/C=C/C(=O)c2ccc(Cl)c(Cl)c2)cc(CN(C)C)c1O`, the GI50 in the experiment with MCF7 was 12.9 µM (inactive); in the experiment on IGROV-1 it was 9.98 µM (inactive); in the experiment on CCRF-CEM it was 5.02 µM (inactive); with T47D it was 11 µM (inactive); in the experiment on A549 it was 15.9 µM (inactive); in the experiment on SF-539 it was 6.92 µM (inactive). The GI50 was 12.5 µM (inactive) in the experiment on OVCAR-5; 11 µM (inactive) with RXF 393; 13.1 µM (inactive) in the experiment on KM12; 20.2 µM (inactive) in the experiment on SF-295; 5.32 µM (inactive) with MDA-MB-435; 9.4 µM (inactive) in the experiment on 786-0. Moreover, the GI50 in the experiment with SNB-75 was 9.12 µM (inactive); in the experiment on HL-60, 3.9 µM (inactive); with K562 it was 25.2 µM (inactive); in the experiment on UACC-62, 14.3 µM (inactive).
With `CCP(=O)(CC)C(Cl)(Cl)C(=O)NC`, the GI50 in the experiment with IGROV-1, with CCRF-CEM, in the experiment with T47D, in the experiment on A549, with OVCAR-5 and in the experiment with SF-295 was > 100 µM (inactive) in each case. Further, the GI50 in the experiment with MDA-MB-435 was > 100 µM (inactive); with SNB-75, > 100 µM (inactive); in the experiment on SR, > 100 µM (inactive); in the experiment with HOP-92, > 100 µM (inactive); in the experiment with HCT-15, > 100 µM; in the experiment with HL-60, > 100 µM (inactive). Further, the GI50 with K562 and with NCI-H23 was > 100 µM (inactive) in each case.
Consider `CN(C)S(=O)(=O)n1cnc(CO)c1`, for which the GI50 in the experiment on MCF7, in the experiment on IGROV-1, in the experiment with T47D, with A549, with SF-539 and in the experiment on OVCAR-5 was > 100 µM (inactive) throughout. For the same molecule, the GI50 with RXF 393, with KM12, with SF-295, in the experiment with MDA-MB-435, in the experiment on 786-0 and in the experiment on SNB-75 was > 100 µM (inactive) each time. The GI50 with HOP-92 was > 100 µM (inactive); with HCT-15, > 100 µM; in the experiment with K562 it was > 100 µM (inactive); in the experiment with NCI-H23, > 100 µM (inactive).
Turning to `C/C(=C/C(=O)N(C)c1ccccc1Cl)O[Si](C(C)C)(C(C)C)C(C)C`, the GI50 is 23.1 µM (inactive) with IGROV-1; 31.3 µM (inactive) in the experiment with T47D; 36.1 µM (inactive) with A549; 21.3 µM (inactive) with SF-539; 18.2 µM (inactive) in the experiment on OVCAR-5; 17.3 µM (inactive) in the experiment with RXF 393. For the same molecule, the GI50 in the experiment on KM12 is 32.4 µM (inactive); in the experiment with SF-295, 21.8 µM (inactive); in the experiment on MDA-MB-435 it was 32.1 µM (inactive); in the experiment with 786-0, 18.1 µM (inactive); in the experiment on SNB-75, 29.4 µM (inactive); in the experiment on HOP-92 it was 16.1 µM (inactive). Besides, the GI50 is 18.2 µM with HCT-15 and 24.7 µM (inactive) with NCI-H23.
Turning to `CC(C)(C)C(=O)N1CCN(C=O)C1=S`, the GI50 in the experiment with MCF7 was 15.6 µM (inactive); in the experiment with IGROV-1 it was 47.3 µM (inactive); in the experiment on CCRF-CEM it was 29.8 µM (inactive); in the experiment on T47D, 34 µM (inactive); in the experiment with A549, 27.5 µM (inactive); in the experiment on SF-539, > 100 µM (inactive). Besides, the GI50 with OVCAR-5 is > 100 µM (inactive); in the experiment with RXF 393 it was 24.6 µM (inactive); in the experiment with KM12, 75.9 µM (inactive); in the experiment with SF-295, > 100 µM (inactive); in the experiment with MDA-MB-435, 35.9 µM (inactive); in the experiment on 786-0 it was 36.7 µM (inactive). Moreover, the GI50 was 30.1 µM (inactive) with SNB-75; 16.8 µM (inactive) in the experiment with HOP-92; 53.2 µM in the experiment with HCT-15; 47.3 µM (inactive) in the experiment with HL-60; 35.2 µM (inactive) with K562; 77.3 µM (inactive) with NCI-H23. The GI50 with UACC-62 is 32.1 µM (inactive).
With `O=c1c(-c2ccccc2)c(SCCCN2CCN(c3cccc(Cl)c3)CC2)n(-c2ccccc2)c(=S)n1-c1ccccc1`, the GI50 with MCF7, with IGROV-1, in the experiment with CCRF-CEM, with SF-539, in the experiment on OVCAR-5 and in the experiment with RXF 393 was > 100 µM (inactive) each time. Besides, the GI50 was 46.5 µM (inactive) in the experiment on KM12; > 100 µM (inactive) in the experiment on SF-295; 16.8 µM (inactive) with MDA-MB-435; > 100 µM (inactive) in the experiment with SNB-75; 29 µM (inactive) in the experiment on SR; > 100 µM (inactive) with HOP-92. Moreover, the GI50 in the experiment on HCT-15 was > 100 µM; in the experiment with HL-60, > 100 µM (inactive); in the experiment with K562 it was > 100 µM (inactive); with NCI-H23, > 100 µM (inactive); in the experiment with UACC-62, > 100 µM (inactive).
Consider `Cc1c2ccccc2nc2[nH]c3ccncc3c12`, for which the GI50 in the experiment on IGROV-1 is 29.5 µM (inactive); in the experiment with CCRF-CEM, 0.957 µM (active); with T47D, 33.7 µM (inactive); in the experiment on A549, 30.7 µM (inactive); with SF-539, 36.8 µM (inactive); with OVCAR-5, 35.3 µM (inactive). Besides, the GI50 is 26.6 µM (inactive) in the experiment with KM12; 31.6 µM (inactive) in the experiment with SF-295; 33 µM (inactive) in the experiment with MDA-MB-435; 16.3 µM (inactive) in the experiment with 786-0; 86.3 µM (inactive) in the experiment on SNB-75; 26.9 µM (inactive) in the experiment on SR. For the same molecule, the GI50 with HOP-92 is 33 µM (inactive); in the experiment on HCT-15 it was 26.5 µM; in the experiment on HL-60, 26.9 µM (inactive); with K562 it was 51.5 µM (inactive); with NCI-H23, 33 µM (inactive); with UACC-62 it was 25.4 µM (inactive).
Regarding `N=c1c2ccccc2nc2oc3cc([N+](=O)[O-])ccc3n12`, the GI50 is > 100 µM (inactive) in the experiment on MCF7; 27.4 µM (inactive) in the experiment on IGROV-1; > 100 µM (inactive) in the experiment with CCRF-CEM; < 0.01 µM (active) in the experiment on T47D; 40.1 µM (inactive) in the experiment with A549; 22.3 µM (inactive) in the experiment on SF-539. Moreover, the GI50 was 28.2 µM (inactive) in the experiment on OVCAR-5; 7.38 µM (inactive) in the experiment with RXF 393; > 100 µM (inactive) in the experiment on KM12; 19.3 µM (inactive) in the experiment with SF-295; > 100 µM (inactive) in the experiment with MDA-MB-435; 24.7 µM (inactive) in the experiment on 786-0. The GI50 is 5.61 µM (inactive) in the experiment with SNB-75; > 100 µM (inactive) with SR; > 100 µM in the experiment on HCT-15; > 100 µM (inactive) with K562; 16.6 µM (inactive) in the experiment with NCI-H23; 47.3 µM (inactive) in the experiment on UACC-62.
For the molecule `CCOC(=O)CCC(NC(=O)OCc1ccccc1)C(=O)NC(CCC(=O)OCC)C(=O)NC(CCC(=O)OCC)C(=O)NC(CCC(=O)OCC)C(=O)NC(CCC(=O)OCC)C(=O)NC(CCC(=O)OCC)C(=O)NC(CCC(=O)OCC)C(=O)OCC` (stereo unspecified), the GI50 in the experiment with MCF7 is > 100 µM (inactive); in the experiment with CCRF-CEM, 72.9 µM (inactive); with T47D it was > 100 µM (inactive); in the experiment with A549 it was > 100 µM (inactive); in the experiment with OVCAR-5, > 100 µM (inactive); with MDA-MB-435, > 100 µM (inactive). Also, the GI50 in the experiment with 786-0 is > 100 µM (inactive); in the experiment with SNB-75 it was 40.5 µM (inactive); with SR, 70.8 µM (inactive); in the experiment with HCT-15 it was > 100 µM; in the experiment on HL-60, > 100 µM (inactive); in the experiment with K562, > 100 µM (inactive). For the same molecule, the GI50 with NCI-H23 and in the experiment on UACC-62 was > 100 µM (inactive) in each case.
On to `COC(=O)c1cc(CNCCc2c[nH]c3ccccc23)on1`, for which the GI50 in the experiment on MCF7 was > 100 µM (inactive); in the experiment with IGROV-1, > 100 µM (inactive); with CCRF-CEM it was > 100 µM (inactive); with T47D, > 100 µM (inactive); in the experiment on A549, > 100 µM (inactive); in the experiment on SF-539, 74.1 µM (inactive). In addition, the GI50 was > 100 µM (inactive) in the experiment on OVCAR-5; > 66.8 µM (inactive) with RXF 393; > 100 µM (inactive) in the experiment with KM12; > 91.8 µM (inactive) in the experiment with SF-295; 33.8 µM (inactive) in the experiment on 786-0; > 65 µM (inactive) with SNB-75. Moreover, the GI50 with SR is > 100 µM (inactive); with HOP-92, 92.5 µM (inactive); with HCT-15, > 100 µM; in the experiment with HL-60, > 100 µM (inactive); with K562 it was > 100 µM (inactive); in the experiment with NCI-H23 it was > 100 µM (inactive). In addition, in the experiment with UACC-62, the GI50 was > 100 µM (inactive).
Turning to `Oc1cc(-c2cccc3ccccc23)nc2ncccc12`, the GI50 was 0.00693 µM (active) with MCF7; 0.0611 µM (active) in the experiment with IGROV-1; 0.0245 µM (active) in the experiment on CCRF-CEM; 0.0481 µM (active) with A549; 0.0197 µM (active) in the experiment with SF-539; 0.0472 µM (active) with OVCAR-5. Also, the GI50 with RXF 393 was 0.015 µM (active); in the experiment on KM12, 0.0122 µM (active); with SF-295, 0.0388 µM (active); with MDA-MB-435, 0.000865 µM (active); in the experiment with 786-0, 0.0321 µM (active); in the experiment on SNB-75, 0.00684 µM (active). In addition, the GI50 with SR was 0.00565 µM (active); with HOP-92, 0.434 µM (active); in the experiment with HCT-15, 0.00627 µM; in the experiment on HL-60, 0.00401 µM (active); in the experiment with K562, 0.00525 µM (active); in the experiment on NCI-H23, 0.035 µM (active). In addition, the GI50 with UACC-62 was 0.0102 µM (active).
